Source: patent US8563053B2, “Compositions and methods of natural products in nanoformulations for the prevention and treatment of osteoporosis” (priority 2009, dated 2013)

Assays:
[1] = system: postmenopausal women; experiment: Postmenopausal women with high versus low dietary intake / serum lycopene: oxidative stress and bone markers; format: in vivo, human; details: women with higher serum lycopene
Text: Work of the inventors of the present invention, both experimental work and work with humans, provides evidence for a positive effect of the potent antioxidant “Lycopene” on bone health.

[2] = system: healthy postmenopausal women; experiment: Supplementation of healthy postmenopausal women with lycopene: oxidative stress and bone turnover markers; format: in vivo, human; details: 30 mg/day for 6 months

## CC(C)=CCC/C(C)=C/C=C/C(C)=C/C=C/C(C)=C/C=C/C=C(C)/C=C/C=C(C)/C=C/C=C(\C)CCC=C(C)C [lycopene]
[1]
  bone formation markers (s-Osteocalcin and bone-specific ALP): improve
  bone resorption markers (u-NTX, s-CTX): improve
  oxidative stress (lipid and protein oxidation, catalase and superoxide dismutase activities): reduced oxidative stress
[2]; bone formation marker
  s-BALP: increases
  s-OC: increases
[2]; bone resorption marker
  s-CTX: significant decreases
  u-NTX: significant decreases
[2]; healthy postmenopausal women
  bone turnover markers: significantly improved
  oxidative stress: significantly improved
